Assay: Solubility in a solvent (qualitative)
Assay type: physicochemical
[1] = dichloromethane (methylene chloride)

Row | SMILES | solubility in a solvent (acetonitrile) | solubility in a solvent (benzene) | solubility in a solvent (chloroform) | solubility in a solvent [1] | solubility in a solvent (toluene) | solubility in a solvent (acetone) | solubility in a solvent (hexane) | solubility in a solvent (methanol) | solubility in a solvent (diethyl ether) | solubility in a solvent (water)
1 | Cc1cc[n+]2[n]1[Pt-2]13[n]4c(C)cc[n+]4[Ag-][n]4ccc(C)[n+]4[Pt-2]([n]4c(C)cc[n+]4[Ag-][n]4ccc(C)[n+]41)([n]1c(C)cc[n+]1[Ag-][n]1ccc(C)[n+]13)[n+]1c(C)cc[n]1[Ag-]2 [[Pt2Ag4(μ-3-Mepz)8]] | slightly soluble | slightly soluble | soluble | soluble | slightly soluble | – | – | – | – | –
2 | CC(C)(C)c1cc[n+]2[n]1[Ag-][n+]1c(C(C)(C)C)cc[n]1[Pt-2]13[n]4ccc(C(C)(C)C)[n+]4[Ag-][n]4c(C(C)(C)C)cc[n+]4[Pt-2]2([n]2ccc(C(C)(C)C)[n+]2[Ag-][n]2c(C(C)(C)C)cc[n+]21)[n]1ccc(C(C)(C)C)[n+]1[Ag-][n]1c(C(C)(C)C)cc[n+]13 [[Pt2Ag4(μ-3-^tBupz)8]] | – | – | readily soluble | readily soluble | – | – | – | – | – | –
3 | c1ccc(-c2cc(-c3ccccc3)[n+]3[n]2[Pt-2]24[Cl+][Ag-][n]5c(-c6ccccc6)cc(-c6ccccc6)[n+]5[Pt-2]([Cl+][Ag-][n]5c(-c6ccccc6)cc(-c6ccccc6)[n+]52)([n]2c(-c5ccccc5)cc(-c5ccccc5)[n+]2[Ag-][n]2c(-c5ccccc5)cc(-c5ccccc5)[n+]24)[n+]2c(-c4ccccc4)cc(-c4ccccc4)[n]2[Ag-]3)cc1 [[Pt2Ag4(μ-Cl)2(μ-dppz)6]] | slightly soluble | soluble | readily soluble | readily soluble | soluble | – | – | – | – | –
4 | Cc1cc(C)[n+]2[n]1[Pt-2]13[n]4c(C)cc(C)[n+]4[Ag-][n]4c(C)cc(C)[n+]4[Pt-2]([n]4c(C)cc(C)[n+]4[Ag-][n]4c(C)cc(C)[n+]41)([n]1c(C)cc(C)[n+]1[Ag-][n]1c(C)cc(C)[n+]13)[n+]1c(C)cc(C)[n]1[Ag-]2 [[Pt2Ag4(μ-dmpz)8]] | moderately soluble | highly soluble | extremely highly soluble | extremely highly soluble | highly soluble | not soluble | moderately soluble | not soluble | – | –
5 | CC(C)(C)c1cc[n+]2[n]1[Cu-][n+]1c(C(C)(C)C)cc[n]1[Pt-2]13[n]4ccc(C(C)(C)C)[n+]4[Cu-][n]4c(C(C)(C)C)cc[n+]4[Pt-2]2([n]2ccc(C(C)(C)C)[n+]2[Cu-][n]2c(C(C)(C)C)cc[n+]21)[n]1ccc(C(C)(C)C)[n+]1[Cu-][n]1c(C(C)(C)C)cc[n+]13 [[Pt2Cu4(μ-3-^tBupz)8]] | – | – | soluble | soluble | – | – | – | – | – | –
6 | Cc1cc(C)[n+]2[n]1[Pt-2]13[n]4c(C)cc(C)[n+]4[Cu-][n]4c(C)cc(C)[n+]4[Pt-2]([n]4c(C)cc(C)[n+]4[Cu-][n]4c(C)cc(C)[n+]41)([n]1c(C)cc(C)[n+]1[Cu-][n]1c(C)cc(C)[n+]13)[n+]1c(C)cc(C)[n]1[Cu-]2 [[Pt2Cu4(μ-dmpz)8]] | poorly soluble | – | soluble | soluble | poorly soluble | slightly soluble | – | poorly soluble | slightly soluble | –
7 | CC(C)(C)c1cc[n-]n1.CC(C)(C)c1cc[n-]n1.CC(C)(C)c1cc[nH]n1.CC(C)(C)c1cc[nH]n1.[Pt+2] [[Pt(3-^tBupz)2(3-^tBupzH)2]] | – | – | readily soluble | readily soluble | – | soluble | soluble | soluble | – | –
8 | CC(C)(C)c1ccn[nH]1.CC(C)(C)c1ccn[nH]1.CC(C)(C)c1ccn[nH]1.CC(C)(C)c1ccn[nH]1.[Cl-].[Cl-].[Pt+2] [[Pt(3-^tBupzH)4]Cl2] | – | – | readily soluble | readily soluble | soluble | – | – | soluble | – | –
9 | [Cl][Pt-2]([n]1nc(-c2ccccc2)cc1-c1ccccc1)([n+]1[nH]c(-c2ccccc2)cc1-c1ccccc1)[n+]1[nH]c(-c2ccccc2)cc1-c1ccccc1 [[PtCl(dppz)(dppzH)2]] | soluble | soluble | readily soluble | readily soluble | soluble | readily soluble | – | – | – | –
10 | Cc1ccn[n]1[Pt-2]([n]1nccc1C)([n+]1[nH]ccc1C)[n+]1[nH]ccc1C.Cc1ccn[n]1[Pt-2]([n]1nccc1C)([n+]1[nH]ccc1C)[n+]1[nH]ccc1C [[{Pt(3-Mepz)2(3-MepzH)2}2]] | – | soluble | readily soluble | readily soluble | soluble | – | – | – | soluble | –
11 | Cc1cc(C)[n]([Pt-2]([n]2nc(C)cc2C)([n+]2[nH]c(C)cc2C)[n+]2[nH]c(C)cc2C)n1.Cc1cc(C)[n]([Pt-2]([n]2nc(C)cc2C)([n+]2[nH]c(C)cc2C)[n+]2[nH]c(C)cc2C)n1 [[{Pt(dmpz)2(dmpzH)2}2]] | moderately soluble | highly soluble | extremely highly soluble | extremely highly soluble | highly soluble | not soluble | – | not soluble | moderately soluble | not soluble

Source: US20090198069A1, “METAL COMPLEX, LIGHT-EMITTING DEVICE AND DISPLAY” (NAGASAKI UNIVERSITY, NATIONAL UNIVERSITY CORPORATI, priority 2005, published 2009)
